Experimental data from ChEMBL document CHEMBL1155846, “Selectivity determinants of inhibitor binding to human 20alpha-hydroxysteroid dehydrogenase: crystal structure of the enzyme in ternary complex with coenzyme and the potent inhibitor 3,5-dichlorosalicylic acid” (J Med Chem, 2008).

Legend:
[1] = biological target: T1, Aldo-keto reductase family 1 member C4 (Homo sapiens, UniProt P17516); assay: Inhibition of human recombinant AKR1C4
T1 sequence (P17516 whole entry): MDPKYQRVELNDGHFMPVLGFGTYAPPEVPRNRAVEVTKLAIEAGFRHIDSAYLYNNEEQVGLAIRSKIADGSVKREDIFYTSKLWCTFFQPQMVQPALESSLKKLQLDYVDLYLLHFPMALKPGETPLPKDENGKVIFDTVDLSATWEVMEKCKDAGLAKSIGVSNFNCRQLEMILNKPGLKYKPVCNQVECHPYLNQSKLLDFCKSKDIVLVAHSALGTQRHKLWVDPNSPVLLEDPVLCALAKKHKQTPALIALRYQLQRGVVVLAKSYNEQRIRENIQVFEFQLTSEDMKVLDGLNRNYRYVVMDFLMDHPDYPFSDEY

[2] = biological target: T2, Aldo-keto reductase family 1 member C3 (Homo sapiens, UniProt P42330); assay: Inhibition of human recombinant AKR1C3
T2 sequence (P42330 whole entry): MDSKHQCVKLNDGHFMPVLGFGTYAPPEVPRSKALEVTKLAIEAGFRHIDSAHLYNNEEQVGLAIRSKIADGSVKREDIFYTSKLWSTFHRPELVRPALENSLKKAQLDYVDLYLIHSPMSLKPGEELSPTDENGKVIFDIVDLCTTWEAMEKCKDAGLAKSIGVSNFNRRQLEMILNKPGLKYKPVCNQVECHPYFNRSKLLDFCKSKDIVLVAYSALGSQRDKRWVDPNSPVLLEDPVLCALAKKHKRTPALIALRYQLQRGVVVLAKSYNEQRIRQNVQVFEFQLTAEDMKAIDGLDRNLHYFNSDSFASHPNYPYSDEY

Ki [1]: 24 µM | Ki [2]: 94 µM
SMILES: O=C(O)c1cc(Cl)cc(Cl)c1O
